Several values for one entry are separate records, joined by “and”; a condition that tells them apart may be missing. Equal entries are not always repeated.
Experiments:
[1] = Pharmacokinetics of CRDL in male hamsters following intravenous and oral administration; assay type: in vivo; settings: for F: PO (20 mg/kg) vs IV (2 mg/kg)
Protocol: The plasma concentration of CRDL was determined in male hamsters following intravenous or oral administration. Hamsters were given CRDL at 2 mg/kg i.v. or 20 mg/kg p.o. Blood samples were collected at the indicated time points and the plasma was isolated.

[2] = test system: hypercholesterolemic hamsters; test: In vivo lipid lowering of (14R,13S)-CRDL in hamsters on high cholesterol diet; parameters: species or system Golden Syrian male hamsters; settings: 10 mg/kg daily i.p., 17 days
Protocol: In another experiment, 18 Golden Syrian male hamsters under a high cholesterol (HC) diet were divided into two treatment groups of i.p. One group was treated with (14R,13S)-CRDL at a daily dose of 10 mg/kg and the control group received equal amount of vehicle.
The HC diet markedly damaged the liver function of the hamsters, which was evident by elevated alanine aminotransaminase (ALT) and aspartate aminotransaminase (AST) in blood. (14R,13S)-CRDL treatment ameliorated the liver function under the HC diet and lowered the serum level of ALT by 60% and lowered the serum level of AST by 30% compared to control (FIG. 10B).

[3] = test system: LDLR mRNA expression in HepG2 cells; test: LDLR mRNA expression in HepG2 cells, semi-quantitative RT-PCR; assay type: cell-based, Human; settings: 8 hours, indicated doses, corrected by GAPDH mRNA (FIG. 3)
Protocol: HepG2 cells obtained from American Tissue Culture Collection (Manassas, Va., USA) were seeded in 6-well culture plates at a density of 0.8×10^6 cells/well cultured in EMEM containing 0.5% FBS and were treated with each purified compound at indicated doses for 8 hours. Total RNA was isolated, and 2 μg per sample was reverse transcribed with random primers using M-MLV (Promega) at 37° C. for 1 hour. PCR was carried out at 94° C. for 30 sec, 60° C. for 30 sec, and 72° C. for 30 sec with initial activation of the enzyme at 94° C. for 1 minute. Thirty cycles were performed for LDLR and GAPDH. PCR was performed using primers HLDLR-up and HLDLR-lo for LDLR and primers HGAPDH-up and HGAPDH-lo for GAPDH. The PCR products were separated on a 1% agarose gel and the band intensity was quantitated. LDLR mRNA levels were corrected by measuring GAPDH mRNA levels.
After the treatment, a portion of cells was harvested for total RNA, and another portion of cells was used for TG measurement. The LDLR mRNA levels were assessed by semi quantitative RT-PCR, and the cellular TG content was determined as described above.

[4] = test system: LDLR ligand uptake activity in HepG2 cells; test: DiI-LDL uptake (LDLR ligand uptake activity) in HepG2 cells; assay type: cell-based, Human; settings: 20 hours, B, compound dose ≦ 40 μM; also: key: +: slightly increased fluorescent intensity over control; ++: modestly increased fluorescent intensity over control; +++: strongly increased fluorescent intensity over control
Protocol: HepG2 cells (2×10^5 cells/well) in 24-well culture plates were treated with various compounds at indicated concentrations for 20 hours. The fluorescent 1,1′-dioctadecyl-3,3,3′,3′-tetramethylindocarbocyanin perchlorate (DiI-LDL) (Biomedical Technologies, Stoughton, Mass.) at a concentration of 2 μg/mL was added to cells at the end of treatment. After 4 hours, the medium was removed, cells were washed with cold PBS, and were examined immediately under a fluorescent microscope (Nikon) at 200× amplification. The fluorescent intensity in compound-treated cells was compared to that in untreated control cells. […] In these experiments berberine chloride was used for comparison.

[5] = IV (2 mg/kg), individual hamsters H1-H3, 2 mg/kg
[6] = PO (20 mg/kg), individual hamsters H4-H6, 20 mg/kg
[7] = HC diet, compared to untreated group

Concentration in plasma ([1]; IV 2 mg/kg, 0.083 hr, mean): 594.29 ng/mL | Concentration in plasma ([1]; IV 2 mg/kg, 0.25 hr, mean): 308.25 ng/mL | Concentration in plasma ([1]; IV 2 mg/kg, 0.5 hr, mean): 140.54 ng/mL | Concentration in plasma ([1]; IV 2 mg/kg, 1 hr, mean): 66.53 ng/mL | Concentration in plasma ([1]; IV 2 mg/kg, 2 hr, mean): 23.76 ng/mL | Concentration in plasma ([1]; IV 2 mg/kg, 6 hr, individual hamsters H1-H3, 2 mg/kg): 6.34 ng/mL and 4.76 ng/mL and 4.67 ng/mL | Concentration in plasma ([1]; IV 2 mg/kg, 6 hr, mean): 5.25 ng/mL | Concentration in plasma ([1]; IV 2 mg/kg, 24 hr, individual hamsters H1-H3): BLQ | Tmax ([1]; IV (2 mg/kg), individual hamsters H1-H3): 0.08 h | AUC(0-∞) [1, 5]: 374 ng·h/mL and 351 ng·h/mL and 345 ng·h/mL | MRT(0-∞) [1, 5]: 0.98 h and 1.17 h and 0.94 h | Vz [1, 5]: 10.44 L/kg and 13.64 L/kg and 9.96 L/kg | t1/2z [1, 5]: 1.35 h and 1.66 h and 1.19 h | AUC(0-t) ([1]; IV (2 mg/kg), mean): 345.74 ng·h/mL | AUC(0-∞) ([1]; IV (2 mg/kg), mean): 357 ng·h/mL | Cmax ([1]; IV (2 mg/kg), mean): 594.29 ng/mL | MRT(0-∞) ([1]; IV (2 mg/kg), mean): 1.03 h | Tmax ([1]; IV (2 mg/kg), mean): 0.08 h | Vz ([1]; IV (2 mg/kg), mean): 11.35 L/kg | t1/2z (half life) ([1]; IV (2 mg/kg), mean): 1.4 h | CLz (clearance) ([1]; IV (2 mg/kg), mean, 2 mg/kg): 93.3 mL/min/kg and 93.7 mL/min/kg | Concentration in plasma ([1]; PO 20 mg/kg, 0.25 hr, mean): 1155.75 ng/mL | Concentration in plasma ([1]; PO 20 mg/kg, 0.75 hr, mean): 250.44 ng/mL | Concentration in plasma ([1]; PO 20 mg/kg, 1 hr, mean): 200.37 ng/mL | Concentration in plasma ([1]; PO 20 mg/kg, 2 hr, mean): 81.01 ng/mL | Concentration in plasma ([1]; PO 20 mg/kg, 6 hr, mean): 15.01 ng/mL | Concentration in plasma ([1]; PO 20 mg/kg, 8 hr, mean): 12.09 ng/mL | Concentration in plasma ([1]; PO 20 mg/kg, 24 hr, individual hamsters H4-H6, 20 mg/kg): 3.41 ng/mL and 2.64 ng/mL and 3.12 ng/mL | Concentration in plasma ([1]; PO 20 mg/kg, 24 hr, mean): 3.04 ng/mL | F ([1]; individual hamsters H4-H6): 34.56% and 22.28% and 33.19% | F ([1]; mean): 30.01% | Tmax ([1]; PO (20 mg/kg), individual hamsters H4-H6): 0.25 h | AUC(0-∞) [1, 6]: 1230 ng·h/mL and 795 ng·h/mL and 1180 ng·h/mL | MRT(0-∞) [1, 6]: 3.41 h and 3.96 h and 3.37 h | t1/2z [1, 6]: 8.94 h and 10.13 h and 6.43 h | AUC(0-t) ([1]; PO (20 mg/kg), mean): 1033.21 ng·h/mL | AUC(0-∞) ([1]; PO (20 mg/kg), mean): 1070 ng·h/mL | Cmax ([1]; PO (20 mg/kg), mean): 1155.75 ng/mL | MRT(0-∞) ([1]; PO (20 mg/kg), mean): 3.58 h | Tmax ([1]; PO (20 mg/kg), mean): ~0.25 h | t1/2z ([1]; PO (20 mg/kg), mean): 8.50 h | blood level of glucose ([2]; HC diet): not changed | blood level of urea nitrogen (BUN) ([2]; HC diet): not changed | reduction of level of creatinine (CREA) ([2]; HC diet, p<0.001): 20%
SMILES: COc1cc2c(cc1OC)[C@H]1[C@@H](C)c3ccc(OC)c(OC)c3CN1CC2 [CRDL, 14R,13S-(+)-corydaline]
Concentration in plasma ([1]; IV 2 mg/kg, 0.083 hr, individual hamsters H1-H3, 2 mg/kg): 621.33 ng/mL and 520.38 ng/mL and 641.16 ng/mL | Concentration in plasma ([1]; IV 2 mg/kg, 0.25 hr, individual hamsters H1-H3, 2 mg/kg): 255.56 ng/mL and 350.21 ng/mL and 318.96 ng/mL | Concentration in plasma ([1]; IV 2 mg/kg, 0.5 hr, individual hamsters H1-H3, 2 mg/kg): 124.95 ng/mL and 165.87 ng/mL and 130.79 ng/mL | Concentration in plasma ([1]; IV 2 mg/kg, 1 hr, individual hamsters H1-H3, 2 mg/kg): 60.71 ng/mL and 69.78 ng/mL and 69.09 ng/mL | Concentration in plasma ([1]; IV 2 mg/kg, 2 hr, individual hamsters H1-H3, 2 mg/kg): 23.92 ng/mL and 19.37 ng/mL and 27.99 ng/mL | AUC(0-t) [1, 5]: 364.46 ng·h/mL and 335.91 ng·h/mL and 336.84 ng·h/mL | CLz [1, 5]: 89.2 mL/min/kg and 95 mL/min/kg and 96.7 mL/min/kg | Cmax [1, 5]: 641.16 ng/mL and 621.33 ng/mL and 520.38 ng/mL | Concentration in plasma ([1]; PO 20 mg/kg, 0.25 hr, individual hamsters H4-H6, 20 mg/kg): 1263.21 ng/mL and 895.64 ng/mL and 1308.39 ng/mL | Concentration in plasma ([1]; PO 20 mg/kg, 0.75 hr, individual hamsters H4-H6, 20 mg/kg): 369.71 ng/mL and 164.19 ng/mL and 217.42 ng/mL | Concentration in plasma ([1]; PO 20 mg/kg, 1 hr, individual hamsters H4-H6, 20 mg/kg): 254.54 ng/mL and 146.76 ng/mL and 199.83 ng/mL | Concentration in plasma ([1]; PO 20 mg/kg, 2 hr, individual hamsters H4-H6, 20 mg/kg): 98.97 ng/mL and 62.78 ng/mL and 81.27 ng/mL | Concentration in plasma ([1]; PO 20 mg/kg, 6 hr, individual hamsters H4-H6, 20 mg/kg): 14.54 ng/mL and 9.66 ng/mL and 20.83 ng/mL | Concentration in plasma ([1]; PO 20 mg/kg, 8 hr, individual hamsters H4-H6, 20 mg/kg): 10.93 ng/mL and 6.80 ng/mL and 18.54 ng/mL | AUC(0-t) [1, 6]: 1188.19 ng·h/mL and 756.88 ng·h/mL and 1154.55 ng·h/mL | Cmax [1, 6]: 1263.21 ng/mL and 895.64 ng/mL and 1308.39 ng/mL | adverse effects during the drug treatment [2]: no adverse effects were observed | lowering of serum level of ALT ([2]; HC diet, compared to control): 60% | lowering of serum level of AST ([2]; HC diet, compared to control): 30% | reduction of plasma TC [2, 7]: 41.9% | reduction of plasma TG [2, 7]: 46.0% | reduction of plasma non-HDL-c [2, 7]: 50% | LDLR mRNA expression [3]: potent and dose-dependent effects | Activity on DiI-LDL uptake [4]: ++
